Data reported in US20210231678A1, “ALLERGY ANTIGEN AND EPITOPE THEREOF” (FUJITA ACADEMY, priority 2020, published 2021).

These substances were tested on IgE antibody present in the serum of a patient (latex-allergic) (assay: Latex epitope mapping (2) overlapping 10-residue peptides and (3) alanine/glycine scanning on peptide arrays). Conditions: serum of latex-allergic patient P1.
Type: binding, human
Protocol: On the basis of the sequences (SEQ ID NOs: 5, 25, 35, 68 and 83) of the peptides bound to an IgE antibody in serum in a patient-specific manner as described above in (A), a library of overlapping peptide fragments (length: 10 amino acids) was prepared using the sequences of the peptides and sequences in which sequences were added so as to flank each peptide in the amino acid sequences of allergy components comprising the sequences of the peptide. Epitope mapping was carried out using the library.
The peptides to be synthesized were shifted by one amino acid.
The library was prepared by the same procedure as described above in (A), and the presence or absence of binding of an IgE antibody present in the serum of a patient to each peptide fragment was measured by the same technique as described above. Numeric values determined from images obtained as a result of carrying out only the procedures (1) and (4) to (6) described above in the subsection titled (3) Spotting of cellulose-bound peptide solution were used as control values. The control value of each peptide was subtracted from numeric values determined from images obtained from results about the serum of patients, and the obtained value of the difference was compared with values of the peptides serving as the basis of overlapping.
Chemiluminescence intensity in images obtained by measurement was converted into a numeric value in the same manner as in (A). Numeric values determined from images obtained as a result of carrying out only the procedures (1) and (4) to (6) described above in the subsection titled (3) Spotting of cellulose-bound peptide solution (secondary antibody measurement values) were used as control values. The control value of each peptide was subtracted from numeric values determined from images obtained from results about the serum of patients. When values obtained using the sequences (SEQ ID NOs: 5, 25, 35, 68 and 83) serving as the basis of overlapping were defined as 100%, it was determined that: a peptide having a value of the difference that was less than 30% had no binding activity against IgE antibodies; a peptide having a value of the difference that was 30% or more and less than 50% had binding activity, albeit poor, against IgE antibodies; a peptide having a value of the difference that was 50% or more and less than 70% had binding activity, albeit somewhat poor, against IgE antibodies; and a peptide having a value of the difference that was 70% or more had equivalent or good binding activity against IgE antibodies and was thus a peptide had remaining binding activity against IgE antibodies.
From the amino acid sequences identified above in (A), a library of peptide fragments in which amino-terminal amino acids were substituted one by one by alanine (or glycine when the original amino acid was alanine) according to a technique called alanine/glycine scanning (Non Patent Literature 5) was prepared by the same technique as described above. The presence or absence of binding of an IgE antibody present in the serum of a patient to each peptide fragment was measured by the same technique as described above.
Chemiluminescence intensity in images obtained by measurement was converted into a numeric value in the same manner as in (A). Numeric values determined from images obtained from secondary antibody measurement values were used as control values. The control value of each peptide was subtracted from numeric values determined from images obtained from results about the serum of 17 patients (patient Nos. P1-P17). […]

| Substance | epitope sequence grade for binding to IgE antibody |
| --- | --- |
| 6 (QKPY; epitope) [compound 6] | Key |
| 69 (HKVGKGEI; epitope) [compound 69] | Preferably |
| 70 (HKVGKG; epitope) [compound 70] | Key |
| 84 (SKFYDDKNG; epitope) [compound 84] | More preferably |
| 85 (SKFYDDKN; epitope) [compound 85] | Preferably |
| 87 (YDDKNGYSSS; epitope) [compound 87] | Further preferably |
| 88 (DDKNGYSSS; epitope) [compound 88] | More preferably |

Same assay, conditions: serum of latex-allergic patient P2

| Substance | epitope sequence grade for binding to IgE antibody |
| --- | --- |
| 7 (DNFVIQKPYD; epitope) [compound 7] | Preferably |
| 26 (DKPLN; epitope) [compound 26] | Key |
| 91 (WSKFYDDK; epitope) [compound 91] | Further preferably |
| 92 (KFYDDKNGYS; epitope) [compound 92] | More preferably |
| 93 (KFYDDK; epitope) [compound 93] | Preferably |
| 95 (DDKNGYSSS; epitope) [compound 95] | More preferably |

Same assay, conditions: serum of latex-allergic patient P3

| Substance | epitope sequence grade for binding to IgE antibody |
| --- | --- |
| 36 (LKSYKSNSVA; epitope) [compound 36] | Most preferably |
| 37 (SYKSNSVATD; epitope) [compound 37] | Further preferably |
| 38 (SYKSNSVA; epitope) [compound 38] | More preferably |
| 39 (SYKSNSV; epitope) [compound 39] | Preferably |

Same assay, conditions: serum of latex-allergic patient P4

| Substance | epitope sequence grade for binding to IgE antibody |
| --- | --- |
| 41 (SYKSNSV; epitope) [compound 41] | More preferably |
| 98 (WSKFYDDK; epitope) [compound 98] | More preferably |
| 99 (KFYDDKNGYS; epiotope) [compound 99] | Preferably |
| 100 (KFYDDK; epitope) [compound 100] | Key |
| 101 (DKNGYSSS; epitope) [compound 101] | More preferably |

Same assay, conditions: serum of latex-allergic patient P5

| Substance | epitope sequence grade for binding to IgE antibody |
| --- | --- |
| 44 (SYKSNS; epitope) [compound 44] | Preferably |
| 71 (VNVIHKVGKG; epitope) [compound 71] | More preferably |
| 74 (VIHKVGKGEI; epitope) [compound 74] | Further preferably |
| 75 (HKVGKGEI; epitope) [compound 75] | More preferably |
| 104 (WSKFYDDK; epitope) [compound 104] | More preferably |
| 105 (SKFYDDK; epitope) [compound 105] | Preferably |
| 106 (KFYDDK; epitope) [compound 106] | Key |
| 107 (YDDKNGYSSS; epitope) [compound 107] | Preferably |

Same assay, conditions: serum of latex-allergic patient P6

| Substance | epitope sequence grade for binding to IgE antibody |
| --- | --- |
| 9 (EDNFVIQKPY; epitope) [compound 9] | More preferably |
| 10 (QKPYDK; epitope) [compound 10] | Preferably |
| 11 (QKPY; epitope) [compound 11] | Key |
| 27 (KPYDKP; epitope) [compound 27] | Key |
| 28 (KPLNDRYS; epitope) [compound 28] | Key |

Same assay, conditions: serum of latex-allergic patient P7

| Substance | epitope sequence grade for binding to IgE antibody |
| --- | --- |
| 12 (QKPYD; epitope) [compound 12] | Preferably |
| 13 (QKPY; epitope) [compound 13] | Key |
| 78 (KVGK; epitope) [compound 78] | Key |
| 109 (WSKFYDDK; epitope) [compound 109] | Key |
| 110 (YDDKNGYSSS; epitope) [compound 110] | Preferably |

Same assay, conditions: serum of latex-allergic patient P8

| Substance | epitope sequence grade for binding to IgE antibody |
| --- | --- |
| 14 (QKPYDK; epitope) [compound 14] | Preferably |
| 15 (QKPYD; epitope) [compound 15] | Key |
| 46 (LKSYKSNSVA; epitope) [compound 46] | Preferably |
| 47 (LKSYKSNSV; epitope) [compound 47] | Key |
| 48 (KSNSVATDI; epitope) [compound 48] | Further preferably |
| 49 (KSNSVATD; epitope) [compound 49] | More preferably |

Same assay, conditions: serum of latex-allergic patient P9

| Substance | epitope sequence grade for binding to IgE antibody |
| --- | --- |
| 16 (QKPYDK; epitope) [compound 16] | Key |
| 29 (DKPLNDR; epitope) [compound 29] | Key |
| 52 (LKSYK; epitope) [compound 52] | Key |
| 53 (KSNSVATDIY; epitope) [compound 53] | Further preferably |
| 79 (KVGK; epitope) [compound 79] | Key |

Same assay, conditions: serum of latex-allergic patient P12

| Substance | epitope sequence grade for binding to IgE antibody |
| --- | --- |
| 17 (EDNFVIQKPY; epitope) [compound 17] | More preferably |
| 18 (QKPYDK; epitope) [compound 18] | Preferably |
| 19 (QKPY; epitope) [compound 19] | Key |
| 57 (LKSYKSNSVA; epitope) [compound 57] | Most preferably |
| 58 (SYKSNSVATD; epitope) [compound 58] | Still further preferably |
| 59 (SYKSNSVA; epitope) [compound 59] | Further preferably |
| 63 (VATDIY; epitope) [compound 63] | More preferably |
| 112 (WSKFYDDKNG; epitope) [compound 112] | More preferably |
| 113 (WSKFYDDKN; epitope) [compound 113] | Preferably |
| 114 (KFYDDK; epitope) [compound 114] | Key |

Same assay, conditions: serum of latex-allergic patient P13

| Substance | epitope sequence grade for binding to IgE antibody |
| --- | --- |
| 20 (QKPYDK; epitope) [compound 20] | Key |
| 30 (KPLN; epitope) [compound 30] | Key |
| 66 (SYKSNS; epitope) [compound 66] | Key |

Same assay, conditions: serum of latex-allergic patient P15

| Substance | epitope sequence grade for binding to IgE antibody |
| --- | --- |
| 31 (DKPLND; epitope) [compound 31] | Preferably |
| 32 (KPLN; epitope) [compound 32] | Key |

Same assay, conditions: serum of latex-allergic patient P17

| Substance | epitope sequence grade for binding to IgE antibody |
| --- | --- |
| 21 (FVIQKPYD; epitope) [compound 21] | Further preferably |
| 22 (QKPYDKPLN; epitope) [compound 22] | More preferably |
| 23 (QKPYD; epitope) [compound 23] | Preferably |
| 24 (QKPY; epitope) [compound 24] | Key |
| 33 (KPYDKPLNDR; epitope) [compound 33] | Preferably |
| 34 (DKPLNDRYS; epitope) [compound 34] | Key |
| 67 (KSNSV; epitope) [compound 67] | Key |
| 80 (KVGKGEITVF; epitope) [compound 80] | More preferably |
| 115 (WSKFYDDKN; epitope) [compound 115] | More preferably |
| 116 (WSKFYD; epitope) [compound 116] | Preferably |
